Here are results for 36 molecules from ChEMBL document CHEMBL3868640, “1,2,4-Triazolidine-3-thiones as Narrow Spectrum Antibiotics against Multidrug-Resistant Acinetobacter baumannii” (ACS Med Chem Lett, 2017).

Molecules are shown by their SMILES. Values after ≈ are worked out from the molar mass of the structure shown.

Data set [1] relates to Acinetobacter baumannii. Nature of the data set: Antimicrobial activity against extensively drug-resistant Acinetobacter baumannii AB5075 after 16 hrs by microbroth dilution method. In kind it is functional. The conditions noted are these: AB5075, 16 h. For orientation: In broth dilution the organism is exposed to a series of concentrations in liquid medium.
Data set [2] has as its system Acinetobacter baumannii. Nature of the data set: Antimicrobial activity against extensively drug-resistant Acinetobacter baumannii AB5075 in 0.02% linoleic acid supplemented media after 16 hrs by microbroth dilution method. As to conditions: AB5075, 16 h. In kind it is functional.
Data set [3] in a line: Hemolytic activity against sheep RBC up to 512 ug/ml after 1 hr by UV spectrometric analysis. Format: ADME, cell-based, Ovis aries. The conditions noted are these: erythrocyte.
The next data set relates to Escherichia coli. Nature of the data set: Antimicrobial activity against Escherichia coli after 16 hrs by microbroth dilution method. Format: functional.
Data set [4] is described as follows: Drug degradation in cation adjusted Mueller-Hinton broth after 16 hrs by liquid chromatography. In kind it is physicochemical.
Data set [5] has as its system Acinetobacter baumannii. Nature of the data set: Antimicrobial activity against multi drug-resistant Acinetobacter baumannii AB3785 after 16 hrs by microbroth dilution method. In kind it is functional. The conditions noted are these: AB3785, 16 h.
Data set [6] deals with Acinetobacter baumannii. In words: Antibacterial activity against Acinetobacter baumannii AB5075 infected in Galleria mellonella assessed as worm survival at 50 mg/kg after 3 days relative to control. Format: functional. As to conditions: AB5075, 72 h.
Data set [7] is described as follows: Half life in cation adjusted Mueller-Hinton broth by liquid chromatography. Format: physicochemical.
Data set [8] concerns Acinetobacter baumannii. Nature of the data set: Bactericidal activity against extensively drug-resistant Acinetobacter baumannii AB5075 assessed as log reduction in bacterial count at 4 to 16 ug/ml measured up to 24 hrs by time kill assay. Format: functional.
For the next data set, the system named is Pseudomonas aeruginosa. In words: Antimicrobial activity against Pseudomonas aeruginosa after 16 hrs by microbroth dilution method. Format: functional.
Data set [9] concerns Acinetobacter baumannii. Nature of the data set: Antimicrobial activity against multi drug-resistant Acinetobacter baumannii BAA1605 after 16 hrs by microbroth dilution method. Format: functional. The conditions noted are these: BAA1605, 16 h.
The subject of data set [10] is Acinetobacter baumannii. Nature of the data set: Antibacterial activity against Acinetobacter baumannii AB5075 infected in Galleria mellonella assessed as protection against bacterial infection by measuring survival of host at 50 mg/kg after 6 days relative to control. In kind it is functional. The conditions noted are these: AB5075, 144 h.
The subject of data set [11] is Acinetobacter baumannii. In words: Antimicrobial activity against multi drug-resistant Acinetobacter baumannii AB3806 after 16 hrs by microbroth dilution method. In kind it is functional. The conditions noted are these: AB3806, 16 h.
The subject of data set [12] is Acinetobacter baumannii. In words: Antibacterial activity against Acinetobacter baumannii AB5075 infected in Galleria mellonella assessed as worm survival at 100 mg/kg after 3 days relative to control. Format: functional. As to conditions: AB5075, 72 h.
The test system of a further data set is Klebsiella pneumoniae. Nature of the data set: Antimicrobial activity against Klebsiella pneumoniae after 16 hrs by microbroth dilution method. Format: functional.
Data set [13] concerns Acinetobacter baumannii. Nature of the data set: Antimicrobial activity against multi drug-resistant Acinetobacter baumannii AB4957 after 16 hrs by microbroth dilution method. Format: functional. The conditions noted are these: AB4957, 16 h.
Data set [14] has as its system Acinetobacter baumannii. Nature of the data set: Antimicrobial activity against multi drug-resistant Acinetobacter baumannii AB4878 after 16 hrs by microbroth dilution method. Format: functional. As to conditions: AB4878, 16 h.
For a further data set, the system named is Staphylococcus aureus. Nature of the data set: Antimicrobial activity against methicillin-resistant Staphylococcus aureus after 16 hrs by microbroth dilution method. In kind it is functional.
In data set [15] the test system is Acinetobacter baumannii. Nature of the data set: Antibacterial activity against Acinetobacter baumannii AB5075 infected in Galleria mellonella assessed as protection against bacterial infection by measuring survival of host at 100 mg/kg after 6 days relative to control. Format: functional. As to conditions: AB5075, 144 h.
For data set [16], the system named is Acinetobacter baumannii. In words: Antimicrobial activity against multi drug-resistant Acinetobacter baumannii AB3638 after 16 hrs by microbroth dilution method. As to conditions: AB3638, 16 h. Format: functional.

As for `SC1=NC2(CCCCC2)NN1c1ccccc1`, the lowest concentration to inhibit growth in the data set on Acinetobacter baumannii [1] (MIC) was 8 µg/mL (≈ 32.3 µM).

Take `CCC1(CC)NC(=S)N(c2ccccc2)N1`: in the data set with Acinetobacter baumannii [1], the MIC (as a rule, the smallest concentration in the dilution series that meets the test's criterion for growth inhibition) was 8 µg/mL (≈ 34 µM).

`CC1(C)NC(=S)N(c2ccccc2)N1` came in with an MIC in the data set on Acinetobacter baumannii [1] of 8 µg/mL (≈ 38.6 µM).

In turn, `CC(C)C1(C)NC(=S)N(c2ccccc2)N1` (stereo unspecified) came in with an MIC against Acinetobacter baumannii [1] of 8 µg/mL (≈ 34 µM).

Regarding `CCCCN1N(c2ccc(Cl)cc2)C(=S)NC1(C)C`, the MIC against Acinetobacter baumannii [1] was greater than 128 µg/mL.

For the molecule `CCC1NC(=S)N(c2ccccc2)N1` (stereo unspecified), the MIC against Acinetobacter baumannii [1] was greater than 128 µg/mL.

On to `CCCC1(CC)NC(=S)N(c2ccccc2)N1` (stereo unspecified), for which the MIC against Acinetobacter baumannii [1] was found to be 32 µg/mL (≈ 128 µM).

The molecule `CCC1(CC)NC(=S)N(c2ccccc2F)N1` gave an MIC with Acinetobacter baumannii [1] of 32 µg/mL (≈ 126 µM).

In the data set on Acinetobacter baumannii [1], `CCC1(CC)NC(=S)N(c2cccc(Cl)c2)N1` showed an MIC of 8 µg/mL (≈ 29.7 µM).

Molecule `CCC1(CC)NC(=S)N(c2ccc(F)cc2)N1` had an MIC in the data set on Acinetobacter baumannii [1] of 4 µg/mL (≈ 15.8 µM).

In the data set with Acinetobacter baumannii [1], `CCCC1NC(=S)N(c2ccccc2)N1` (stereo unspecified) registered an MIC of 64 µg/mL (≈ 289 µM).

With `CC1(C)NNC(=S)N1c1ccc(Cl)cc1`, the MIC with Acinetobacter baumannii [1] was greater than 128 µg/mL.

In the data set with Acinetobacter baumannii [1], `CC1NC(=S)N(c2ccccc2)N1` (stereo unspecified) showed an MIC greater than 128 µg/mL.

`CC1(c2ccccc2)NC(=S)N(c2ccccc2)N1` (stereo unspecified): the MIC with Acinetobacter baumannii [1] is greater than 128 µg/mL.

On to `CC1(C)NC(=S)N(c2ccc(Cl)cc2)N1`, for which the MIC in the data set with Acinetobacter baumannii [2] was greater than 128 µg/mL; with Escherichia coli it was no less than 128 µg/mL; with Acinetobacter baumannii [5], 1 µg/mL (≈ 4.14 µM); in the data set on Pseudomonas aeruginosa it was no less than 128 µg/mL; with Acinetobacter baumannii [9], 2 µg/mL (≈ 8.27 µM); with Acinetobacter baumannii [11], 1 µg/mL (≈ 4.14 µM). In addition, the MIC against Klebsiella pneumoniae is no less than 128 µg/mL; against Acinetobacter baumannii [13] it was 2 µg/mL (≈ 8.27 µM); against Acinetobacter baumannii [14] it was 2 µg/mL (≈ 8.27 µM); against Staphylococcus aureus, no less than 128 µg/mL; with Acinetobacter baumannii [16], 1 µg/mL (≈ 4.14 µM). In [3], the Activity result is “Non-Toxic”. Moreover, the Stability result in data set [4] is reported as “Unstable”. For the same molecule, the values for the survival at 50 mg/kg with Acinetobacter baumannii [6] and in the data set on Acinetobacter baumannii [10] were 42.5% and 22%, respectively. Besides, the half-life (usually the time needed for the level to fall by half in the phase considered) in [7] was 2.5 h. Also, the log reduction with Acinetobacter baumannii [8] was greater than 6 log10 CFU/mL. In addition, the figures for the survival at 100 mg/kg with Acinetobacter baumannii [12] and in the data set with Acinetobacter baumannii [15] were 45% and 32%, respectively.

Molecule `S=C1NC2(CCCC2)NN1c1ccccc1` returned an MIC with Acinetobacter baumannii [1] of 8 µg/mL (≈ 34.3 µM).

In the data set on Acinetobacter baumannii [1], `CCC1(C(C)C)NC(=S)N(c2ccccc2)N1` (stereo unspecified) yielded an MIC of 32 µg/mL (≈ 128 µM).

`CCC1(CC)NC(=S)N(c2ccc(C#N)cc2)N1` showed an MIC with Acinetobacter baumannii [1] greater than 128 µg/mL.

`CCC1(CC)NC(=S)N(c2ccccc2Cl)N1`: in the data set on Acinetobacter baumannii [1], the MIC was determined as 128 µg/mL (≈ 474 µM).

Take `CCC1(CC)NC(=S)N(c2ccc(C(C)C)cc2)N1`: the MIC with Acinetobacter baumannii [1] is greater than 128 µg/mL.

The molecule `CCCC1(CCC)NC(=S)N(c2ccccc2)N1` yielded an MIC with Acinetobacter baumannii [1] of 32 µg/mL (≈ 121 µM).

With `CCC1(CC)NC(=S)N(c2ccc(Cl)cc2)N1`, the MIC is 4 µg/mL (≈ 14.8 µM) in the data set on Acinetobacter baumannii [5]; 4 µg/mL (≈ 14.8 µM) in the data set with Acinetobacter baumannii [9]; 4 µg/mL (≈ 14.8 µM) in the data set with Acinetobacter baumannii [11]; 4 µg/mL (≈ 14.8 µM) in the data set with Acinetobacter baumannii [13]; 4 µg/mL (≈ 14.8 µM) with Acinetobacter baumannii [14]; 2 µg/mL (≈ 7.41 µM) against Acinetobacter baumannii [1]. This molecule also gave an MIC with Acinetobacter baumannii [16] of 4 µg/mL (≈ 14.8 µM).

`CCC1(CC)NC(=S)N(c2cc(F)cc(F)c2)N1` had an MIC with Acinetobacter baumannii [1] greater than 128 µg/mL.

On to `CCC1(CC)NC(=S)N(c2cccc(F)c2)N1`, for which the MIC with Acinetobacter baumannii [1] came out at 8 µg/mL (≈ 31.6 µM).

`CSC1=NC(C)(C)NN1c1ccc(Cl)cc1` came in with an MIC in the data set on Acinetobacter baumannii [1] greater than 128 µg/mL.

The molecule `S=C1NC(c2ccccc2)NN1c1ccccc1` (stereo unspecified) came in with an MIC in the data set with Acinetobacter baumannii [1] of 64 µg/mL (≈ 251 µM).

In turn, `CCC1(CC)NC(=S)N(c2ccc(I)cc2)N1` registered an MIC in the data set on Acinetobacter baumannii [1] of 8 µg/mL (≈ 22.1 µM).

`CCC1(CC)NC(=S)N(c2ccc(C(F)(F)F)cc2)N1` displayed an MIC in the data set with Acinetobacter baumannii [1] greater than 128 µg/mL.

For the molecule `CCC1(C)NC(=S)N(c2ccccc2)N1` (stereo unspecified), the MIC in the data set with Acinetobacter baumannii [5] came out at 4 µg/mL (≈ 18.1 µM); against Acinetobacter baumannii [9] it was 8 µg/mL (≈ 36.1 µM); with Acinetobacter baumannii [11], 4 µg/mL (≈ 18.1 µM); with Acinetobacter baumannii [13], 8 µg/mL (≈ 36.1 µM); in the data set on Acinetobacter baumannii [14] it was 8 µg/mL (≈ 36.1 µM); in the data set with Acinetobacter baumannii [1], 8 µg/mL (≈ 36.1 µM). In the data set with Acinetobacter baumannii [16], this molecule displayed an MIC of 4 µg/mL (≈ 18.1 µM).

`CCC1(CC)NC(=S)N(c2ccc([N+](=O)[O-])cc2)N1` had an MIC with Acinetobacter baumannii [1] greater than 128 µg/mL.

For `CN1N(c2ccc(Cl)cc2)C(=S)NC1(C)C`, in the data set on Acinetobacter baumannii [1], the MIC was greater than 128 µg/mL.

With `CCC1(CC)NC(=S)N(c2ccc(Cl)c(Cl)c2)N1`, the MIC against Acinetobacter baumannii [1] was greater than 128 µg/mL.

With `CCCC1(C)NC(=S)N(c2ccccc2)N1` (stereo unspecified), in the data set with Acinetobacter baumannii [1], the MIC amounted to 16 µg/mL (≈ 68 µM).

On to `CCC1(CC)NC(=S)N(c2ccc(F)c(Cl)c2)N1`, for which it took 32 µg/mL (≈ 111 µM) to inhibit growth in the data set with Acinetobacter baumannii [1] (MIC).

For the molecule `CCC1(CC)NC(=S)N(c2ccc(Br)cc2)N1`, in the data set with Acinetobacter baumannii [1], the MIC came out at 4 µg/mL (≈ 12.7 µM).

Molecule `CC1(C)N=C(SCc2ccccc2)N(c2ccc(Cl)cc2)N1` had an MIC in the data set with Acinetobacter baumannii [1] greater than 128 µg/mL.
